In US9416133B2, “Hydropyrrolopyrrole derivatives for use as fatty acid synthase inhibitors” (MERCK PATENT GMBH, priority 2012, dated 2016):

molecular target: T1, human recombinant full-length fatty acid synthase (FASN) (Homo sapiens, UniProt P49327); test: Biochemical activity testing of human fatty acid synthase FASN (NADPH fluorescence intensity enzyme assay); settings: inhibition of NADPH conversion
T1 construct: 40 nM human recombinant full-length fatty acid synthase (produced in-house in SF9 cells); made in house; host or cells: SF9 cells
T1 sequence (P49327 whole entry): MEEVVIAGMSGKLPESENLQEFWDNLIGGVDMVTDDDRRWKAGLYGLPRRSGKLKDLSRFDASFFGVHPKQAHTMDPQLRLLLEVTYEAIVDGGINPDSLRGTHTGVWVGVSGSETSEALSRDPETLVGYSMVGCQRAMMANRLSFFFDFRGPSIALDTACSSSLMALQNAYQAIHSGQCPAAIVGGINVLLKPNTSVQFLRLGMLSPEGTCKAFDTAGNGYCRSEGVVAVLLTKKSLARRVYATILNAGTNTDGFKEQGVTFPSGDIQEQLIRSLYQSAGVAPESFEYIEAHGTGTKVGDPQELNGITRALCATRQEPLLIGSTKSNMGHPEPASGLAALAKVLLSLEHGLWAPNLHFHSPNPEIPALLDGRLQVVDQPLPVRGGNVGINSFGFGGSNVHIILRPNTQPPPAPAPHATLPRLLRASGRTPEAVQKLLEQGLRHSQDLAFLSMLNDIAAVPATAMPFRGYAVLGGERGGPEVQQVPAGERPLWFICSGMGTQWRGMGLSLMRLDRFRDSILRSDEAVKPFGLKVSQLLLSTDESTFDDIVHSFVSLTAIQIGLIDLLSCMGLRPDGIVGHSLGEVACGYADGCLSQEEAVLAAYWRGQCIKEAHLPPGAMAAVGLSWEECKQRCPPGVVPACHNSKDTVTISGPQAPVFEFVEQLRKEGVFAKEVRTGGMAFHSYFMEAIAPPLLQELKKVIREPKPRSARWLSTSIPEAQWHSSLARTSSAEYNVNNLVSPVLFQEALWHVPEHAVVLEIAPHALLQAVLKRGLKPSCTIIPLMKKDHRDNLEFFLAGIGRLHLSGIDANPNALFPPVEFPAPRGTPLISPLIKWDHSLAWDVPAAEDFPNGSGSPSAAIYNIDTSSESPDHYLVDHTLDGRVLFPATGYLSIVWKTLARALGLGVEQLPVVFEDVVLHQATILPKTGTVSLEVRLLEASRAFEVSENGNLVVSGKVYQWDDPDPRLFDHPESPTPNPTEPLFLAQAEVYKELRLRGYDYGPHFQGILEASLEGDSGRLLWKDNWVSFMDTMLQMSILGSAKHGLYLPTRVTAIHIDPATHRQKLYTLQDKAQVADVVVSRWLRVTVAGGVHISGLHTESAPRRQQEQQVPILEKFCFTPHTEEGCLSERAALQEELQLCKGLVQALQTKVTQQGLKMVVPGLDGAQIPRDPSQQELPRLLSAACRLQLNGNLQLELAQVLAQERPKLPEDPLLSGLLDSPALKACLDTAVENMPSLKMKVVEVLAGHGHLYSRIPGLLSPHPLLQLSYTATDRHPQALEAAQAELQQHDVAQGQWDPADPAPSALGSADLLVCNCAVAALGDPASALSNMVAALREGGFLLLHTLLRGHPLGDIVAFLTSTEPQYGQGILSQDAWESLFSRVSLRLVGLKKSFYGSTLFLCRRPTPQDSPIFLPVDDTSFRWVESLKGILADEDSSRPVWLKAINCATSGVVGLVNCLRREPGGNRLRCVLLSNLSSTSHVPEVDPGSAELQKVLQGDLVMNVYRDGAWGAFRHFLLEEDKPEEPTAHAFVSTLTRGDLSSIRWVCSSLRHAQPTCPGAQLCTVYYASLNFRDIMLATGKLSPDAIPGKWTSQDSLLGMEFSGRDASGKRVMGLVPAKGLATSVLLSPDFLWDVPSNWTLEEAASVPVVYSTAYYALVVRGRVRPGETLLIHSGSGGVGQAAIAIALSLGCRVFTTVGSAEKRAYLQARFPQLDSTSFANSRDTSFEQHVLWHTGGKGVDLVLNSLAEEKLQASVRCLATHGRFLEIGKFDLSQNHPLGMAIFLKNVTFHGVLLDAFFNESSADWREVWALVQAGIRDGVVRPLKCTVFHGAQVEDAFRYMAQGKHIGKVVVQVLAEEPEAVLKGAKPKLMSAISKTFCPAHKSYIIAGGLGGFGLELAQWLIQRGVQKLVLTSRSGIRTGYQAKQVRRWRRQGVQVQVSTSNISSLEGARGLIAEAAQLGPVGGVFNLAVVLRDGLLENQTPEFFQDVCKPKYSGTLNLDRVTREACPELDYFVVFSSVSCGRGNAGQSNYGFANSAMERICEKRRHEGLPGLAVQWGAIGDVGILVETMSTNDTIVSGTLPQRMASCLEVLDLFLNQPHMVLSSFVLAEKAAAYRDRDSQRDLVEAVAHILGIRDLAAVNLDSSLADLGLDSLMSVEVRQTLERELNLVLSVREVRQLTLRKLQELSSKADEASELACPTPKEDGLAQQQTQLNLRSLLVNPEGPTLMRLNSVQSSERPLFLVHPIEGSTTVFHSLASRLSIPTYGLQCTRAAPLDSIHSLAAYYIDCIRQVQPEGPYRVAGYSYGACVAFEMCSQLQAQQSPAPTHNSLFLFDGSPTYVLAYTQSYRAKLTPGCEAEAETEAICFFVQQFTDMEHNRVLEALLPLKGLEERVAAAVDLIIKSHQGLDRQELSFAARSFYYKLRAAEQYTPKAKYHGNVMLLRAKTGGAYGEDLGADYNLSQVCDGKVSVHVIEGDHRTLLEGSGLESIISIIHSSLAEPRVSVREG
Description: Biochemical Activity Testing of Human Fatty Acid Synthase FASN
Fatty acid synthase FASN is a multifunctional enzyme with seven catalytic activities thereby synthesising long chain fatty acids especially palmitoyl-CoA in the presence of co-factor NADPH starting from the substrates acetyl-CoA and malonyl-CoA. The reductive synthesis is realized by the oxidation of NADPH to NADP. Since NADPH has a high fluorescence intensity quantum yield compared to NADP with excitation at 340 nm and emission at 460 nm, the reaction can be monitored via the decrease in fluorescence intensity. The biochemical FASN activity testing was performed as 384 well two-time-point kinetic fluorescence intensity assay format in Greiner low volume medium binding 384-well black microtiter plates in a total assay volume of 8 μl and was used for high throughput screen. In each well 3 μl 40 nM human recombinant full-length fatty acid synthase (produced in-house in SF9 cells) were dispensed in the following assay buffer: 50 mM potassium phosphate buffer pH 7.0, 0.005% (w/v) BSA, 2 mM Glutathione, 0.02% Tween-20. Then 2 μl of 200 μM NADPH in assay buffer were added, followed by the addition of the test compounds in 10 dilution concentrations starting with 30 μM (final concentration) to get a final DMSO content of 1% (v/v). The mixture was incubated for at least 15 min at room temperature. After the pre-incubation the enzymatic reaction was started by the addition of 2 μl substrate solution (80 μM acetyl-CoA, 240 μM malonyl-CoA). A first fluorescence intensity measurement (time point one) was performed with an Envision multimode reader (Perkin Elmer LAS Germany GmbH) at excitation wavelength 340 nm (lamp mode) and emission wavelength 460 nm. The reaction was incubated for 30 minutes at room temperature. After this the fluorescence intensity was measured again in the Envision using the same parameters as described above (second time point measurement). The data were analysed by subtracting the first time point measurement value from the second time point measurement value (after the enzymatic reaction). The differences of the emission signals were determined. These reflect directly the conversion rate of NADPH. The full value used was the inhibitor-free reaction. A pharmacological zero value was used like GSK837149A (Sigma-Aldrich) in a final concentration of 5-10 μM. The inhibitory values (IC50) were determined using either the program Symyx Assay Explorer® or Condosseo® from GeneData.

IC50 | SMILES
< 0.3 µM | CCC(=O)N1CC2CN(C(=O)c3ccc(-c4ccc5cnccc5c4)cc3)CC2C1 (centres unmarked) [Compound A1, 1-[5-(4-isoquinolin-6-yl-benzoyl)-hexahydro-pyrrolo[3,4-c]pyrrol-2-yl]-propan-1-one]
0.3 to 3 µM | CCC(=O)N1CC2CN(C(=O)c3ccc(-c4ccc5ccoc5c4)cc3)CC2C1 (centres unmarked) [Compound A2, 1-[5-(4-benzofuran-6-yl-benzoyl)-hexahydro-pyrrolo[3,4-c]pyrrol-2-yl]-propan-1-one]
0.3 to 3 µM | CC(=O)N1CC2CN(C(=O)c3ccc(-c4ccc5cnccc5c4)cc3)CC2C1 (centres unmarked) [Compound A3, 1-[5-(4-isoquinolin-6-yl-benzoyl)-hexahydro-pyrrolo[3,4-c]pyrrol-2-yl]-ethanone]
0.3 to 3 µM | CCC(=O)N1CC2CN(C(=O)c3ccc(-c4ccc5cc[nH]c5c4)cc3)CC2C1 (centres unmarked) [Compound A4, 1-{5-[4-(1H-indol-6-yl)-benzoyl]-hexahydro-pyrrolo[3,4-c]pyrrol-2-yl}-propan-1-one]
0.3 to 3 µM | O=C(c1ccc(-c2ccc3cc[nH]c3c2)cc1)N1CC2CN(C(=O)C3CC3)CC2C1 (centres unmarked) [Compound A5, (5-cyclopropanecarbonyl-hexahydro-pyrrolo[3,4-c]pyrrol-2-yl)-[4-(1H-indol-6-yl)-phenyl]-methanone]
3 to 50 µM | CC(=O)N1CC2CN(C(=O)c3ccc(-c4ccc5ccoc5c4)cc3)CC2C1 (centres unmarked) [Compound A6, 1-[5-(4-benzofuran-6-yl-benzoyl)-hexahydro-pyrrolo[3,4-c]pyrrol-2-yl]-ethanone]
0.3 to 3 µM | CC(=O)N1CC2CN(C(=O)c3ccc(-c4ccc5cc[nH]c5c4)cc3)CC2C1 (centres unmarked) [Compound A7, 1-{5-[4-(1H-indol-6-yl)-benzoyl]-hexahydro-pyrrolo[3,4-c]pyrrol-2-yl}-ethanone]
0.3 to 3 µM | O=C(c1ccc(-c2ccc3cnccc3c2)cc1)N1CC2CN(C(=O)C3CC3)CC2C1 (centres unmarked) [Compound A8, (5-cyclopropanecarbonyl-hexahydro-pyrrolo[3,4-c]pyrrol-2-yl)-(4-isoquinolin-6-yl-phenyl)-methanone]
